“Also recorded” adds a separate entry of the source. Where two headings read alike, the source gives them in different places.
Experiments:
Hb-AGE = biological target: T1, Hb-AGE (Homo sapiens, UniProt P68871+P69905); assay: Binding of Hb-AGE from solution to immobilized small compounds
T1 construct: purchased Sigma-Aldrich H7379
Experimental: (§1) To test the ability of the twelve selected compounds (see Table 7) to bind to misfolded proteins, […] Greiner Microlon high binding plates, Nunc amino Immobilizer plates and Nunc Maxisorp plates. Compounds were coated in 100 mM NaHCO3 pH 9.6, 50 μl/well, 1 h at room temperature with agitation. As a control, wells were coated with buffer only. After blocking of the plates, wells were overlayed with solutions of 0.1/1/10 μg/ml Hb-AGE or 10/100 μg/ml Aβ, in binding buffer (PBS/0.1% Tween20). After washing, binding of Hb-AGE was assessed by overlaying wells with 1 μg/ml hybridoma antibody 4B5, which binds to glycations(^2), followed by RAMPO. Binding of Aβ was visualized using 500× diluted anti-Aβ antibodies (mouse antibody beta-amyloid Clone 6F/3D #M0872, lot 00003503, DAKOCytomation; β-amyloid (H-43) SC-9129, 200 μg/ml rabbit polyclonal IgG, Santa Cruz Biotechnology) and RAMPO/SWARPO in a 1:1 ratio. Finally, wells were overlayed with OPD/H2O2 solution, and H2SO4, before absorbance readings at 490 nm.

Aβ = biological target: T2, Aβ (Homo sapiens, UniProt P05067, E693Q); assay: Binding of Aβ from solution to immobilized small compounds; conditions: Aβ 100 μg/ml
T2 construct: Lyophilized human amyloid-β(1-40) with E22Q mutation ‘Dutch type’; purchased Peptide facility, Dutch Cancer Institute, Amsterdam; host or cells: synthetic peptide
Experimental: as §1

[1] = biological target: T3, Hb-AGE (glucose-6-phosphate modified human haemoglobin) (Homo sapiens, UniProt P68871+P69905); assay: ELISA binding of tPA to immobilized Hb-AGE, compounds co-incubated with tPA; conditions: compound mixed with tPA, control without compound = 100
T3 construct: purchased Sigma-Aldrich H7379
T3 sequence (P69905 2-142 limits assumed): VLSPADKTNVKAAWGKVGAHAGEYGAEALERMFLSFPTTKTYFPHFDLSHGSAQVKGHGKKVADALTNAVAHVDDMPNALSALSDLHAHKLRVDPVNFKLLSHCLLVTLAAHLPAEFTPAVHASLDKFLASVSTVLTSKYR
T3 sequence (P68871 2-147 limits assumed): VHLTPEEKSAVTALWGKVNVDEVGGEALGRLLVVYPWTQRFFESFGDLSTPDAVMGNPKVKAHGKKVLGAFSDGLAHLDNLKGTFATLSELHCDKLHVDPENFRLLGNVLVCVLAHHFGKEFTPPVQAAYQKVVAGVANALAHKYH
Experimental: The small compound library is depicted in Tables 4-5. […] Binding experiments were performed in single wells per compound, in a duplicate experiment. Binding data obtained with this duplicate experiment was averaged.
• 1. […] Coat buffer in control wells. • 2. wash three times with wash buffer • 3. Block all wells with 300 μl 0.5*recommended concentration Roche blocking reagent for 30 minutes at room temperature, with agitation • 4. wash twice • 5. […] Incubate for 30 minutes at room temperature, with agitation • 7. wash five times with TBS/0.1% Tween20 • 8. […] Incubate for 30 minutes at room temperature, with agitation • 10. wash five times with TBS/0.1% Tween20 • 11. Fill wells with 3000× diluted horse raddish peroxidase-labeled polyclonal rabbit anti-mouse antibody (RAMPO, DAKOCytomation) • 12. Incubate for 20 minutes at room temperature, with agitation • 13. Wash five times with TBS/0.1% Tween20 • 14. Wash twice with PBS • 15. Stain with 100 μl TMB, stop with 50 μl 10% H2SO4 • 16. Read absorbance at 450 nm

[2] = information found on the www, search completed Spring 2006, cited from earlier work
tPA/plasminogen = biological target: T4, tPA/plasminogen (Homo sapiens, UniProt P00750); assay: tPA/plasminogen activation by OVA heated in the presence of compounds (substrate PNAPEP1751); type: biochemical; conditions: 25 μg/ml OVA, 25 μg/ml compound, […] DMSO
T4 construct: purchased Boehringer Ingelheim Actilyse
T4 sequence (P00750 36-562): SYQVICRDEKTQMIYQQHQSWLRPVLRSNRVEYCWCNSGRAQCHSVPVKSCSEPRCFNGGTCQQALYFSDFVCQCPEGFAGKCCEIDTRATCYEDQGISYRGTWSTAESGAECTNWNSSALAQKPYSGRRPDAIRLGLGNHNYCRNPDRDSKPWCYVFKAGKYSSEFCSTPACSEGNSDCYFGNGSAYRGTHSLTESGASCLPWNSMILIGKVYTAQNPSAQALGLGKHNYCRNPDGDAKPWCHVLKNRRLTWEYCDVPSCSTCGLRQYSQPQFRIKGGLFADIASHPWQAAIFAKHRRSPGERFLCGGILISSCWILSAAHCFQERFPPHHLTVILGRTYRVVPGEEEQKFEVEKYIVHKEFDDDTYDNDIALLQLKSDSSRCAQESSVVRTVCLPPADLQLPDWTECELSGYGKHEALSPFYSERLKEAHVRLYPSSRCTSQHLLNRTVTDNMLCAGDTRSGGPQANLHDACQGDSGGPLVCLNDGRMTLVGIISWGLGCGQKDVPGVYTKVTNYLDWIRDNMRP
In short: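 Ovalbumin heated alone in PBS/1% DMSO (positive control) or with compounds at 1 mg/ml, then used 40-fold diluted in a tPA/plasminogen activation assay; buffer without OVA as negative control. Chromogenic substrate conversion read at 405 nm, with compound interference at 405 nm checked; signals related to control.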

factor XII = biological target: T5, factor XII (Homo sapiens, UniProt P00748); assay: Factor XII activation assay (chromogenic, prekallikrein, Chromozyme-PK); type: biochemical; design: purchased Calbiochem; conditions: for activation of factor XII by compound alone: without protein cofactor, ellagic acid 50 μg/ml
T5 sequence (P00748 20-615): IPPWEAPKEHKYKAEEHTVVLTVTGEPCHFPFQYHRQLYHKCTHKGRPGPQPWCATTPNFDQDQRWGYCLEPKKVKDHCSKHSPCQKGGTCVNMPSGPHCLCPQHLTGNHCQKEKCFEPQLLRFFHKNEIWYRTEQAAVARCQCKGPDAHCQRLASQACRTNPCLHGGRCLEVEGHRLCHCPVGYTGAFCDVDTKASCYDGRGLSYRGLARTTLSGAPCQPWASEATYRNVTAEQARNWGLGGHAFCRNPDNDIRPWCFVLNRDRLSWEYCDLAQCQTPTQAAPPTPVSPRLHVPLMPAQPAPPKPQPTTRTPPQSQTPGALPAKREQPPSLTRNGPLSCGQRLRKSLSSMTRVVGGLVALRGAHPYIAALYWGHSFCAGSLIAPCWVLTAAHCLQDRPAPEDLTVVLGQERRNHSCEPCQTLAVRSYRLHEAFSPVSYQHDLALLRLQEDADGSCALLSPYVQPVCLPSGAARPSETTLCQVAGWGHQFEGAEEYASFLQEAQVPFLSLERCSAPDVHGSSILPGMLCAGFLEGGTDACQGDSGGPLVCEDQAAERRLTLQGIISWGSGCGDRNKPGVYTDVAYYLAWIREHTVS
Experimental: For this purpose, in a reaction volume of 60 μl the following components were mixed: 10 μl of 300 μg/ml ellagic acid solution or control buffer, 10 μl of 750 μg/ml I or control buffer, 20 μl of a solution comprising [HEPES-buffered saline, 1.96 μg/ml prekallikrein (Calbiochem), 10 mM ZnCl2, 2.13 μg/ml high molecular weight kininogen (Calbiochem); ‘PK mix’ ], 10 μl Chromozyme-PK (Roche, 1 mg/ml aliquot) and 10 μl of a solution comprising 1 mM ZnCl2, HEPES-buffered saline and 4.76 μg/ml factor XII (Calbiochem); ‘FXII mix’. Nunc Immobilizer plates were blocked with PBS with 1% Tween20 for 1 hour at room temperature under constant motion. All reagents were kept on ice throughout preparation of the experiment. The factor XII activating capacity of ellagic acid (Sigma, E-2250, St. Louis, Mo., USA) or I (Cealb, Sanquin, Amsterdam, The Netherlands) alone, and combination thereof was determined in duplicate. After adding 10 μL of I solution or buffer and 10 μl of ellagic acid solution or buffer to the wells, 20 μL of PK mix was added to each well. Ten μL of kallikrein substrate Chromozyme PK was added to each well, followed by 10 μL of freshly prepared FXII mix. Final I and ellagic acid concentrations are 125 μg/ml and 50 μg/ml. Absorbance was measured at 405 nm at 37° C. for 3 hours with brief shaking every minute.

T1 sequence (P69905 2-142 limits assumed): as the sequence (P69905 2-142 limits assumed) above
T1 sequence (P68871 2-147 limits assumed): as the sequence (P68871 2-147 limits assumed) above

Q: What does the source list for `COc1cc2c(cc1O)C[C@H]1c3c(cc(OC)c(O)c3-2)CCN1C` [compound 202, Isoboldine]?
A: Signal (a.u.) (Hb-AGE; Nunc Maxisorp, coat 100 μg/ml, Hb-AGE 1 μg/ml): 0.46 a.u.; Signal (a.u.) (Hb-AGE; Nunc amino Immobilizer, coat 1 μg/ml, Hb-AGE 10 μg/ml): 0.20 a.u.; Signal (a.u.) (Aβ; Nunc Maxisorp, coat 100 μg/ml): 0.11 a.u.; Signal (a.u.) (Aβ; Nunc amino Immobilizer, coat 1 μg/ml): 0.08 a.u.; % tPA binding to Hb-AGE (co-incubation) [1]: 250%; Use or activity in vitro/in vivo [2]: potency to suppress LPS-induced proliferation in vitro; also recorded: potent antiplasmodial activity

Q: What does the source list for `COc1cc2c(cc1OC)-c1c(O)c(OC)cc3c1[C@H](C2)N(C)CC3` [compound 201, Thaliporphine, thalicmidine]?
A: Signal (a.u.) (Hb-AGE; Nunc Maxisorp, coat 100 μg/ml, Hb-AGE 0.1 μg/ml): 0.55 a.u.; % tPA binding to Hb-AGE (co-incubation) [1]: 30%; Use or activity in vitro/in vivo ([2]; thalicmidine): increased survival rate of LPS-treated mice; also recorded: suppression of TNFα, NO. and O^2− production; also recorded: stimulated splenocyte proliferation induced by LPS; also recorded: potent vasoconstrictor

Q: What does the source list for `O=c1oc2c(O)c(O)cc3c(=O)oc4c(O)c(O)cc1c4c23` [compound 117, Ellagic acid hydrate]?
A: Signal (a.u.) (Hb-AGE; Greiner Microlon, coat 100 μg/ml, Hb-AGE 10 μg/ml): 0.13 a.u.; Signal (a.u.) (Hb-AGE; Nunc Maxisorp, coat 100 μg/ml, Hb-AGE 10 μg/ml): 0.15 a.u.; Signal (a.u.) (Aβ; Nunc Maxisorp, coat 100 μg/ml): 0.054 a.u.; influence on tPA/plasminogen activation by OVA pre-heated in the presence of compound (tPA/plasminogen): Inhibition of tPA/plasminogen activation by OVA pre-heated; activation of factor XII/kallikrein generation, compound combined with human serum albumin (factor XII; 50 μg/ml ellagic acid with 125 μg/ml HSA, hydrate): potent activator of kallikrein generation; also recorded: kallikrein substrate Chromozyme-PK conversion is only observed when in addition 125 μg/ml HSA is included in the assay; Activation of factor XII (summary) (factor XII; summary Table 9): Activation of factor XII; activation of factor XII by compound alone (factor XII; listed as Ellagic acid, hydrate): factor XII/kallikrein activity comparable to control buffer; activation of factor XII by compound alone (factor XII; listed as ellagic acid, hydrate): poor activators of factor XII

From US20080267948A1, “Croos-B Structure Binding Compounds” (priority 2005, published 2008)
